In EP4755888A1 (ILAb Co., Ltd., priority 2023, dated 2025):

Target: PD-1/PD-L1 (Homo sapiens, UniProt Q9NZQ7)
Assay: TR-FRET PD-1/PD-L1 binding inhibition at the molecular level (free proteins)
Conditions: Tag1-PD-L1 and Tag2-PD-1 proteins, twelve concentrations from 200 nM, 2 hours at room temperature, read-out: FRET assay (IC50)
In short: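 HTRF read-out at 665/620 nm after 2 h at room temperature. Detection used anti-Tag1 Eu cryptate plus anti-Tag2 XL665 antibodies. Tagged PD-L1 and PD-1 proteins were pre-mixed with compound across twelve […] 1:2 dilutions starting at 200 nM.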

PD-1/PD-L1, sequence (Q9NZQ7 19-238 limits assumed): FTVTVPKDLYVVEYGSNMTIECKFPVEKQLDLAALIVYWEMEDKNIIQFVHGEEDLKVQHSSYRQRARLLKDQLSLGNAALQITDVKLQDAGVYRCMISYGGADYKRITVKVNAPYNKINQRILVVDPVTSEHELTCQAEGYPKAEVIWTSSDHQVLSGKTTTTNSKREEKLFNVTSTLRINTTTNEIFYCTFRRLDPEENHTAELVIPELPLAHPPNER

Row | Structure (SMILES) | IC50 [µM]
1 | O=C(Nc1cccc(-c2cccc(Nc3nc(C(F)(F)F)nc4cccnc34)c2Cl)c1Cl)c1cc2n(n1)CCC[C@H]2N1CC[C@@H](O)C1 [Compound 334, (R)-N-(2,2'-dichloro-3'-((2-(trifluoromethyl)pyrido[3,2-d]pyrimidin-4-yl)amino)-[1,1'-biphenyl]-3-yl)-4-((R)-3-hydroxypyrrolidin-1-yl)-4,5,6,7-tetrahydropyrazolo[1,5-a]pyridine-2-carboxamide] | 0.01 to 0.1
2 | COc1cc(/C(F)=C/c2cccc(-c3cccc(NC(=O)c4cc5n(n4)CCC[C@@H]5N4CC[C@@H](O)C4)c3Cl)c2Cl)ncc1CN1CC[C@@H](O)C1 [Compound 335, (S)-N-(2,2'-dichloro-3'-((Z)-2-fluoro-2-(5-(((R)-3-hydroxypyrrolidin-1-yl)methyl)-4-methoxypyridin-2-yl)vinyl)-[1,1'-biphenyl]-3-yl)-4-((R)-3-hydroxypyrrolidin-1-yl)-4,5,6,7-tetrahydropyrazolo[1,5-a]pyridine-2-carboxamide] | 0.01 to 0.1
3 | O=C(Nc1cccc(-c2cccc(Nc3nc(C(F)(F)F)nc4cc(CN5CC[C@@H](O)C5)cnc34)c2Cl)c1Cl)c1cc2n(n1)CCC[C@@H]2N1CCC(C(=O)O)CC1 [Compound 336, 1-((S)-2-((2,2'-dichloro-3'-((7-(((R)-3-hydroxypyrrolidin-1-yl)methyl)-2-(trifluoromethyl)pyrido[3,2-d]pyrimidin-4-yl)amino)-[1,1'-biphenyl]-3-yl)carbamoyl)-4,5,6,7-tetrahydropyrazolo[1,5-a]pyridin-4-yl)piperidine-4-carboxylic acid] | 0.01 to 0.1
4 | O=C(Nc1cccc(-c2cccc(Nc3nc(C(F)(F)F)nc4cc(CN5CC[C@@H](O)C5)cnc34)c2Cl)c1Cl)c1cc2n(n1)CCC[C@H]2N1CCC(C(=O)O)CC1 [Compound 337] | 0.01 to 0.1
5 | O=C(Nc1cccc(-c2cccc(Nc3nc(C(F)(F)F)nc4cc(CN5CC[C@@H](O)C5)cnc34)c2Cl)c1Cl)c1cc2n(n1)CCC[C@@H]2N1CC[C@@H](O)C1 [Compound 338, (S)-N-(2,2'-dichloro-3'-((7-(((R)-3-hydroxypyrrolidin-1-yl)methyl)-2-(trifluoromethyl)pyrido[3,2-d]pyrimidin-4-yl)amino)-[1,1'-biphenyl]-3-yl)-4-((R)-3-hydroxypyrrolidin-1-yl)-4,5,6,7-tetrahydropyrazolo[1,5-a]pyridine-2-carboxamide] | 0.01 to 0.1
6 | O=C(Nc1cccc(-c2cccc(Nc3nc(C(F)(F)F)nc4cc(CN5CC[C@@H](O)C5)cnc34)c2Cl)c1Cl)c1cc2n(n1)CCC[C@H]2N1CC[C@@H](O)C1 [Compound 339, (R)-N-(2,2'-dichloro-3'-((7-(((R)-3-hydroxypyrrolidin-1-yl)methyl)-2-(trifluoromethyl)pyrido[3,2-d]pyrimidin-4-yl)amino)-[1,1'-biphenyl]-3-yl)-4-((R)-3-hydroxypyrrolidin-1-yl)-4,5,6,7-tetrahydropyrazolo[1,5-a]pyridine-2-carboxamide] | 0.01 to 0.1
7 | CC(C)(N[C@H]1CCCn2nc(C(=O)Nc3cccc(-c4cccc(Nc5nc(C(F)(F)F)nc6cc(CN7CC[C@@H](O)C7)cnc56)c4Cl)c3Cl)cc21)C(=O)O [Compound 340, 2-(((S)-2-((2,2'-dichloro-3'-((7-(((R)-3-hydroxypyrrolidin-1-yl)methyl)-2-(trifluoromethyl)pyrido[3,2-d]pyrimidin-4-yl)amino)-[1,1'-biphenyl]-3-yl)carbamoyl)-4,5,6,7-tetrahydropyrazolo[1,5-a]pyridin-4-yl)amino)-2-methylpropanoic acid] | 0.01 to 0.1
8 | CC(C)(N[C@@H]1CCCn2nc(C(=O)Nc3cccc(-c4cccc(Nc5nc(C(F)(F)F)nc6cc(CN7CC[C@@H](O)C7)cnc56)c4Cl)c3Cl)cc21)C(=O)O [Compound 341, 2-(((R)-2-((2,2'-dichloro-3'-((7-(((R)-3-hydroxypyrrolidin-1-yl)methyl)-2-(trifluoromethyl)pyrido[3,2-d]pyrimidin-4-yl)amino)-[1,1'-biphenyl]-3-yl)carbamoyl)-4,5,6,7-tetrahydropyrazolo[1,5-a]pyridin-4-yl)amino)-2-methylpropanoic acid] | 0.01 to 0.1
9 | Cc1c(NC(=O)c2cc3n(n2)CCC[C@@H]3N2CCC(C(=O)O)CC2)cccc1-c1cccc(Nc2nc(C(F)(F)F)nc3cc(CN4CC[C@@H](O)C4)cnc23)c1C [Compound 342, 1-((S)-2-((3'-((7-(((R)-3-hydroxypyrrolidin-1-yl)methyl)-2-(trifluoromethyl)pyrido[3,2-d]pyrimidin-4-yl)amino)-2,2'-dimethyl-[1,1'-biphenyl]-3-yl)carbamoyl)-4,5,6,7-tetrahydropyrazolo[1,5-a]pyridin-4-yl)piperidine-4-carboxylic acid] | 0.01 to 0.1
10 | Cc1c(NC(=O)c2cc3n(n2)CCC[C@@H]3N2CC[C@@H](O)C2)cccc1-c1cccc(Nc2nc(C(F)(F)F)nc3cc(CN4CC[C@@H](O)C4)cnc23)c1C [Compound 344] | 0.01 to 0.1
11 | Cc1c(NC(=O)c2cc3n(n2)CCC[C@H]3N2CC[C@@H](O)C2)cccc1-c1cccc(Nc2nc(C(F)(F)F)nc3cc(CN4CC[C@@H](O)C4)cnc23)c1C [Compound 345] | 0.01 to 0.1
12 | CN[C@H]1CCCn2nc(C(=O)Nc3cccc(-c4cccc(Nc5nccc6cc(CN7CC[C@@H](O)C7)cnc56)c4C)c3C)cc21 [Compound 346, (S)-N-(3'-((3-(((R)-3-hydroxypyrrolidin-1-yl)methyl)-1,7-naphthyridin-8-yl)amino)-2,2'-dimethyl-[1,1'-biphenyl]-3-yl)-4-(methylamino)-4,5,6,7-tetrahydropyrazolo[1,5-a]pyridine-2-carboxamide] | < 0.01
13 | CN[C@@H]1CCCn2nc(C(=O)Nc3cccc(-c4cccc(Nc5nccc6cc(CN7CC[C@@H](O)C7)cnc56)c4C)c3C)cc21 [Compound 347, (R)-N-(3'-((3-(((R)-3-hydroxypyrrolidin-1-yl)methyl)-1,7-naphthyridin-8-yl)amino)-2,2'-dimethyl-[1,1'-biphenyl]-3-yl)-4-(methylamino)-4,5,6,7-tetrahydropyrazolo[1,5-a]pyridine-2-carboxamide] | < 0.01
14 | CN[C@H]1CCCn2nc(C(=O)Nc3cccc(-c4cccc(NC(=O)c5ccc(CN6CC[C@@H](O)C6)cn5)c4C)c3C)cc21 [Compound 348, (S)-N-(3'-(5-(((R)-3-hydroxypyrrolidin-1-yl)methyl)picolinamido)-2,2'-dimethyl-[1,1'-biphenyl]-3-yl)-4-(methylamino)-4,5,6,7-tetrahydropyrazolo[1,5-a]pyridine-2-carboxamide] | < 0.01
15 | CN[C@@H]1CCCn2nc(C(=O)Nc3cccc(-c4cccc(NC(=O)c5ccc(CN6CC[C@@H](O)C6)cn5)c4C)c3C)cc21 [Compound 349, (R)-N-(3'-(5-(((R)-3-hydroxypyrrolidin-1-yl)methyl)picolinamido)-2,2'-dimethyl-[1,1'-biphenyl]-3-yl)-4-(methylamino)-4,5,6,7-tetrahydropyrazolo[1,5-a]pyridine-2-carboxamide] | 0.01 to 0.1
16 | CN[C@H]1CCCn2nc(C(=O)Nc3cccc(-c4cccc(NC(=O)c5ccc(CN6CC[C@@H](O)C6)cn5)c4Cl)c3Cl)cc21 [Compound 350, (S)-N-(2,2'-dichloro-3'-(5-(((R)-3-hydroxypyrrolidin-1-yl)methyl)picolinamido)-[1,1'-biphenyl]-3-yl)-4-(methylamino)-4,5,6,7-tetrahydropyrazolo[1,5-a]pyridine-2-carboxamide] | 0.01 to 0.1
17 | CN[C@@H]1CCCn2nc(C(=O)Nc3cccc(-c4cccc(NC(=O)c5ccc(CN6CC[C@@H](O)C6)cn5)c4Cl)c3Cl)cc21 [Compound 351, (R)-N-(2,2'-dichloro-3'-(5-(((R)-3-hydroxypyrrolidin-1-yl)methyl)picolinamido)-[1,1'-biphenyl]-3-yl)-4-(methylamino)-4,5,6,7-tetrahydropyrazolo[1,5-a]pyridine-2-carboxamide] | 0.01 to 0.1
18 | CN[C@H]1CCCn2nc(C(=O)Nc3cccc(-c4cccc(Nc5nc(C(F)(F)F)nc6cc(CN7CC[C@@H](O)C7)cnc56)c4Cl)c3Cl)cc21 [Compound 352, (S)-N-(2,2'-dichloro-3'-((7-(((R)-3-hydroxypyrrolidin-1-yl)methyl)-2-(trifluoromethyl)pyrido[3,2-d]pyrimidin-4-yl)amino)-[1,1'-biphenyl]-3-yl)-4-(methylamino)-4,5,6,7-tetrahydropyrazolo[1,5-a]pyridine-2-carboxamide] | 0.01 to 0.1
19 | CN[C@@H]1CCCn2nc(C(=O)Nc3cccc(-c4cccc(Nc5nc(C(F)(F)F)nc6cc(CN7CC[C@@H](O)C7)cnc56)c4Cl)c3Cl)cc21 [Compound 353, (R)-N-(2,2'-dichloro-3'-((7-(((R)-3-hydroxypyrrolidin-1-yl)methyl)-2-(trifluoromethyl)pyrido[3,2-d]pyrimidin-4-yl)amino)-[1,1'-biphenyl]-3-yl)-4-(methylamino)-4,5,6,7-tetrahydropyrazolo[1,5-a]pyridine-2-carboxamide] | 0.01 to 0.1
20 | CN[C@H]1CCCn2nc(C(=O)Nc3cccc(-c4cccc(Nc5nc(C(F)F)nc6cc(CN7CC[C@@H](O)C7)cnc56)c4Cl)c3Cl)cc21 [Compound 354, (S)-N-(2,2'-dichloro-3'-((2-(difluoromethyl)-7-(((R)-3-hydroxypyrrolidin-1-yl)methyl)pyrido[3,2-d]pyrimidin-4-yl)amino)-[1,1'-biphenyl]-3-yl)-4-(methylamino)-4,5,6,7-tetrahydropyrazolo[1,5-a]pyridine-2-carboxamide] | 0.01 to 0.1
21 | CN[C@@H]1CCCn2nc(C(=O)Nc3cccc(-c4cccc(Nc5nc(C(F)F)nc6cc(CN7CC[C@@H](O)C7)cnc56)c4Cl)c3Cl)cc21 [Compound 355, (R)-N-(2,2'-dichloro-3'-((2-(difluoromethyl)-7-(((R)-3-hydroxypyrrolidin-1-yl)methyl)pyrido[3,2-d]pyrimidin-4-yl)amino)-[1,1'-biphenyl]-3-yl)-4-(methylamino)-4,5,6,7-tetrahydropyrazolo[1,5-a]pyridine-2-carboxamide] | 0.01 to 0.1
